Test system: GL261 tdTomato+luc+ glioma
Test: GL261 intracranial glioma growth (tumor volume, bioluminescence)
Assay type: in vivo, mouse
Method: Mice were deeply anesthetized with isoflurane. After identifying the sagittal and coronal sutures on the right side, a hole was drilled at the following coordinates: 1 mm anterior and 1,5 mm lateral from bregma. GL261 tdTomato^+luc^+ glioma cells (80,000 in 1 μL of DMEM) were stereotactically injected with a Hamilton syringe to the right striatum of the mouse 3 mm deep from the surface of the brain. The skin incision was closed and mice were monitored until they completely recovered from anesthesia. Mice were randomly allocated to the study groups. The animals were weighed weekly and observed daily for clinical symptoms and evidence of toxicity by evaluating their eating, mobility, weight loss, hair loss, and hunched posture. OAT-1746 was administered by oral gavage at 50 mg/kg twice a day from day 1 after implantation. Anti-PD-1 antibody (Biolegend, GoInVivo™ Purified anti-mouse CD279) was injected intraperitoneally (i.p.) at a dose of 2.5 mg/kg on days 8, 10, 12, 14 post-implantation. Control groups received vehicle (saline) twice a day by gavage. Animals were euthanized when they lost more than 20% of body weight compared to day 0.
To monitor tumor growth, mice were injected i.p. with 150 mg/kg body weight luciferin (D-luciferin sodium salt BC218 Synchem) and left for 8 min. Then, the animals were anesthetized with 3% isoflurane and transferred to the X-treme Imaging System (Bruker, Germany). At 10 min after the D-luciferin injection, a photonic emission was imaged. Tumors were visualized at days 14, 21 and 28 after implantation and bioluminescent images were quantified as photon/sec/mm^2. […]
The animals were sacrificed on the day 21 after GL261 tdTomato^+luc^+ cell implantation and perfused with 4% paraformaldehyde in PBS. […] To quantify the tumor size, sections were stained with toluidine blue, and images were acquired using a Leica DM4000B microscope (Leica Microsystems, Wetzlar, Germany). Tumor areas were measured using ImageJ software (NIH, Bethesda, MD, USA) on every sixth brain slice, and tumor volumes were calculated as previously described ([26]).

Q: Which results are given for CN(C)C[C@@H]1CC[C@@H](CCB(O)O)C[C@]1(N)C(=O)O [OAT-1746]?
A: animals that developed tumors at day 14 (bioluminescence, day 14): 5 out of 8; tumor growth (tumor volume on brain sections) (day 21, OAT-1746 50 mg/kg oral twice a day, anti-PD-1 2.5 mg/kg i.p. days 8, 10, 12, 14): did not reduce the tumor growth; glioma growth (bioluminescence imaging) (days 14, 21, 28 post-implantation): did not show any effect on the tumor volume

From article PMC8422859, “A Novel Oral Arginase 1/2 Inhibitor Enhances the Antitumor Effect of PD-1 Inhibition in Murine Experimental Gliomas by Altering the Immunosuppressive Environment” (Frontiers in Oncology, 2021)
